Like-named read-outs stand apart in the source and are kept apart here. Where only a bound is given, the exact number is not on record here.

In patent US8501446B2 (Vertex Pharmaceuticals Incorporated, priority 2004, dated 2013) one finds Ki data, which are given here for twelve molecules.

Common to all, as to assay type: biochemical
In one assay the target is ROCK (Homo sapiens, UniProt Q13464). In words: ROCK inhibition assay, standard radioactive enzyme assay ("33P"). Here is the method: Some compounds were screened for their ability to inhibit ROCK using a standard radioactive enzyme assay. Assays were carried out in a solution containing 100 mM HEPES (pH 7.5), 10 mM MgCl2, 25 mM NaCl, 2 mM DTT, and 1.5% DMSO. Final substrate concentrations in the assay were 13 μM [γ-^33P] ATP (25 mCi ^33P ATP/mmol ATP, Perkin Elmer, Cambridge, Mass./Sigma Chemicals, St Louis, Mo.) and 27 μM Myelin Basic Protein (MBP). Final enzyme concentration in the assay was 5 nM ROCK. Assays were carried out at room temperature. 1.5 μl of DMSO stock containing serial dilutions of the compound of the present invention (concentrations ranging from 10 μM to 2.6 nM) was placed in a 96 well plate. 50 μl of Solution 1 (100 mM HEPES (pH 7.5), 10 mM MgCl2, […]) was added to the plate. The reaction was initiated by addition of 50 μl of Solution 2 (100 mM HEPES (pH 7.5), 10 mM MgCl2, 4 mM DTT, […] and 10 nM ROCK). After 2 hours the reaction was quenched with 50 μL of 30% trichloroacetic acid (TCA, Fisher) containing 9 mM ATP. Transfer of 140 μL of the quenched reaction to a glass fiber filter plate (Corning, Cat. No. 3511) was followed by washing 3 times with 5% TCA. 50 μL of Optima Gold scintillation fluid (Perkin Elmer) was added and the plates were counted on a Top Count (Perkin Elmer). After removing mean background values for all of the data points the data was fit using Prism software to obtain a Ki(app).
Sequence of ROCK (Q13464 whole entry): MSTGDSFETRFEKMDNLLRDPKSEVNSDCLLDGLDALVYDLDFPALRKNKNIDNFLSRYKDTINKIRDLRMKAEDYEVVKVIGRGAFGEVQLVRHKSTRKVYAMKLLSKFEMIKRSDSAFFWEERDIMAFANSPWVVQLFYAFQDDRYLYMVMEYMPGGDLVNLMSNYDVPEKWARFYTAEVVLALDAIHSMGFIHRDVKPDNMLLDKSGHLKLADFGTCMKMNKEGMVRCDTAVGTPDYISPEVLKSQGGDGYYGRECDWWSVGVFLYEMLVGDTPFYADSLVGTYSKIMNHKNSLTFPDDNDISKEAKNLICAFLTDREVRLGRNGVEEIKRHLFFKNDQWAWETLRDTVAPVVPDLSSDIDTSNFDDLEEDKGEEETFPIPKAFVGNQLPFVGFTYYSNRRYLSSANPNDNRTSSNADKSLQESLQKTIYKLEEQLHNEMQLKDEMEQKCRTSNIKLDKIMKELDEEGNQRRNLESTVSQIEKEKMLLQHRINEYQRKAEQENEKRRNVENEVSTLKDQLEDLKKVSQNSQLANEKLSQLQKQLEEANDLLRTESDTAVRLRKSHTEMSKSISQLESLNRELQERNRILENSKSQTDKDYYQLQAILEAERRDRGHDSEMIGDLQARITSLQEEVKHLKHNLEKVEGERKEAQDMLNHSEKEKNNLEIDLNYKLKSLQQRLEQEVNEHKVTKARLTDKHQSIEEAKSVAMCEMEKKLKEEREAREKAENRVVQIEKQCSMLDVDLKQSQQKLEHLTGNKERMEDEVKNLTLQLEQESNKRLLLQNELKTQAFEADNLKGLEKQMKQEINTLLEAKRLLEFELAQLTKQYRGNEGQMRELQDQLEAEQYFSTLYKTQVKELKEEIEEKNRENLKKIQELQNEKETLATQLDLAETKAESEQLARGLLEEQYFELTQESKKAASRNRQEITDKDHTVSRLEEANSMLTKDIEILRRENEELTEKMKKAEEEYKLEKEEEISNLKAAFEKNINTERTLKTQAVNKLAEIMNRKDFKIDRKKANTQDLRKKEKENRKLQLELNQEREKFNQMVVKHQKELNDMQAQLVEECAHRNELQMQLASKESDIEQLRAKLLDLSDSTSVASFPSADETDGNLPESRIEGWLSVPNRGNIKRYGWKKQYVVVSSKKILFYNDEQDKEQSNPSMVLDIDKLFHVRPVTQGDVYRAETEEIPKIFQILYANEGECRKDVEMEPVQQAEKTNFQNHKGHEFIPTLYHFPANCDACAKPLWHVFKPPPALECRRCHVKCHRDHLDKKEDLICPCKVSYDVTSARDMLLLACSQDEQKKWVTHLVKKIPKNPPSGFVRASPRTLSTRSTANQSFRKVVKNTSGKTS

In the next assay the target is JAK2 (Homo sapiens, UniProt O60674). In words: JAK2 inhibition assay (radioactive enzyme assay, as for JAK3). Particulars: average Ki if more than one value determined. In outline: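 Both kinases: poly(Glu)4Tyr substrate in 100 mM HEPES pH 7.4, 10 mM MgCl2, 1 mM DTT. Run 20 min at 25° C, TCA stop, filter-bound ³³P counted, Ki(app) fitted after background subtraction. JAK3: final [γ-³³P]ATP 5 μM, enzyme added as 2 nM solution. JAK2: final poly(Glu)4Tyr 15 μM, final ATP 12 μM.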
Sequence of JAK2 (O60674 whole entry, species assumed): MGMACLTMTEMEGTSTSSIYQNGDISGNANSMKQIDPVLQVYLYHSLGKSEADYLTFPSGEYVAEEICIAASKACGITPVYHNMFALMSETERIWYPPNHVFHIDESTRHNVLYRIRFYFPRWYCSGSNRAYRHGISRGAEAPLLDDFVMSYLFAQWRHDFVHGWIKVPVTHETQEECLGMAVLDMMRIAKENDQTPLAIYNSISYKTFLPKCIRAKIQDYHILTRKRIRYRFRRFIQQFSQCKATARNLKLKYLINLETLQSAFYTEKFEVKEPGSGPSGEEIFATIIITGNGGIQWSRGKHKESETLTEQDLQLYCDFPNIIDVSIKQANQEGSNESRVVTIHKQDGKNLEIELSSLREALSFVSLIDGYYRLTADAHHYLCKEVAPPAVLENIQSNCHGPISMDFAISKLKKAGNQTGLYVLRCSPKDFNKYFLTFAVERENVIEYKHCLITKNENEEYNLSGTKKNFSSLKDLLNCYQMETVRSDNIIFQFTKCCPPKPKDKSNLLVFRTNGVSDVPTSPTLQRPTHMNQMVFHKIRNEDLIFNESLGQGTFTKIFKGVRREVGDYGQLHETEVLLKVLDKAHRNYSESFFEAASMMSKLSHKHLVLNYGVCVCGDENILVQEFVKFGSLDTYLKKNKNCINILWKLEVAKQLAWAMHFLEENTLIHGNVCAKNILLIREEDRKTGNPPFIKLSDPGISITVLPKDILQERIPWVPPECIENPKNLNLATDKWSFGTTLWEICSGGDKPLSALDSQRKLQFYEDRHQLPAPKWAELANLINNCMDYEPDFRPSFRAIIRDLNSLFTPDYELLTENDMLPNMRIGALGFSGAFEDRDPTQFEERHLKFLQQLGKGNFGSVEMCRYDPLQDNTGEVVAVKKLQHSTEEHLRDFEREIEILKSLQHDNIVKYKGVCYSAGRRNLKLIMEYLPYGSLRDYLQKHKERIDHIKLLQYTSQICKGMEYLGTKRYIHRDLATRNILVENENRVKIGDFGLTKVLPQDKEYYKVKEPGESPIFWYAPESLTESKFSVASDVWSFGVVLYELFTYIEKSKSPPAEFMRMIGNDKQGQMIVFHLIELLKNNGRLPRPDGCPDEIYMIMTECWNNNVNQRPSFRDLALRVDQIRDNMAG

A further assay has as its target T1, JAK3 (Homo sapiens, UniProt P52333).
T1 sequence (P52333 1-1124): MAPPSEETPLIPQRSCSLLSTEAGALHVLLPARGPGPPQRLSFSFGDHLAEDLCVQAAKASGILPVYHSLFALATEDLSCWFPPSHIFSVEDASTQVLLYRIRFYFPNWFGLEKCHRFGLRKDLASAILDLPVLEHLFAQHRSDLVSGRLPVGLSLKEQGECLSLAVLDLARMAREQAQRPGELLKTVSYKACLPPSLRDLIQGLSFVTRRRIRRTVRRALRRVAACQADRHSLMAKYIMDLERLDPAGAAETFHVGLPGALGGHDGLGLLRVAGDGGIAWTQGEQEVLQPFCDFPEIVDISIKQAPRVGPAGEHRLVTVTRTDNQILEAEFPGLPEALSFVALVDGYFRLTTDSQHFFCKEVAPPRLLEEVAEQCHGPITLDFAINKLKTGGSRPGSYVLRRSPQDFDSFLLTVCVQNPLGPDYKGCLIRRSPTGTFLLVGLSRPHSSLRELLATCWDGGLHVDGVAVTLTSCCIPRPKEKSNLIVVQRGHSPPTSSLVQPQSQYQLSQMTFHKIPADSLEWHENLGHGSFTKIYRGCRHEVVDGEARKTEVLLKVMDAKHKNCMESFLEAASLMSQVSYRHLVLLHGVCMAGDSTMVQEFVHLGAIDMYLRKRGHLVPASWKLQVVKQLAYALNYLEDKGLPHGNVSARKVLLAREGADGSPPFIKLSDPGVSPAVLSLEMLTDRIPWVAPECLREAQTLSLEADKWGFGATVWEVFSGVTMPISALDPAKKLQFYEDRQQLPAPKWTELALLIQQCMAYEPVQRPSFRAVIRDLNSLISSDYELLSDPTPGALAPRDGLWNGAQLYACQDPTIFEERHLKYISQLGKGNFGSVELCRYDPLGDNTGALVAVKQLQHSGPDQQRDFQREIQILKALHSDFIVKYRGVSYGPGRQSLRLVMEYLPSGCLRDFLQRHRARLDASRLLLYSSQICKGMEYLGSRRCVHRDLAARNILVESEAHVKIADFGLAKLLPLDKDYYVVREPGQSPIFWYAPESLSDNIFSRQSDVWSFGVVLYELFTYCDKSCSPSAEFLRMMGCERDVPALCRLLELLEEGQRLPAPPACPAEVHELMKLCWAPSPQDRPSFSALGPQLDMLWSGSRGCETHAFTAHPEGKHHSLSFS
The experiment in a line: JAK3 inhibition assay (standard radioactive enzyme assay). Particulars: average Ki if more than one value determined.

For assay [1], the target named is T2, full length Aurora-A (AA 1-403) (Homo sapiens, UniProt O14965).
T2 construct: full length Aurora-A (AA 1-403)
T2 sequence (O14965 1-403): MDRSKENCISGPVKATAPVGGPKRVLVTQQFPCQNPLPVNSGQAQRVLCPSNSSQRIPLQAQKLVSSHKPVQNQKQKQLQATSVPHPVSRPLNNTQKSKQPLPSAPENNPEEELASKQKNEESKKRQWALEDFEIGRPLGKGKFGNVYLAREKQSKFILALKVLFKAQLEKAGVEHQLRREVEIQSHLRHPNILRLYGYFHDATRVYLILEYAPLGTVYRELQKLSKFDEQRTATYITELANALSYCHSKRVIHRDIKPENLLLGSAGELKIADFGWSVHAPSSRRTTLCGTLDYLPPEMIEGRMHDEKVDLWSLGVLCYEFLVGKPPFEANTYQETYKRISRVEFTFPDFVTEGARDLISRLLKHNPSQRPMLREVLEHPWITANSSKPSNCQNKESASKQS
The experiment in a line: Aurora-A inhibition assay, standard coupled enzyme system. The following applies: average Ki if more than one value determined.

For another assay, the target named is Aurora-B (Homo sapiens, UniProt Q96GD4). In words: Aurora-B inhibition assay, radioactive assay. The following applies: average Ki if more than one value determined. In outline:
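Aurora-B protein substituted into the standard radioactive kinase format: reaction quenched with TCA, product captured on glass fiber filters and 33P counted. Ki(app) derived by fitting background-corrected counts against inhibitor concentration.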

The target of another assay is T3, ROCK I (AA 6-553) (Homo sapiens, UniProt Q13464).
T3 construct: ROCK I (AA 6-553)
T3 sequence (Q13464 6-553, species assumed): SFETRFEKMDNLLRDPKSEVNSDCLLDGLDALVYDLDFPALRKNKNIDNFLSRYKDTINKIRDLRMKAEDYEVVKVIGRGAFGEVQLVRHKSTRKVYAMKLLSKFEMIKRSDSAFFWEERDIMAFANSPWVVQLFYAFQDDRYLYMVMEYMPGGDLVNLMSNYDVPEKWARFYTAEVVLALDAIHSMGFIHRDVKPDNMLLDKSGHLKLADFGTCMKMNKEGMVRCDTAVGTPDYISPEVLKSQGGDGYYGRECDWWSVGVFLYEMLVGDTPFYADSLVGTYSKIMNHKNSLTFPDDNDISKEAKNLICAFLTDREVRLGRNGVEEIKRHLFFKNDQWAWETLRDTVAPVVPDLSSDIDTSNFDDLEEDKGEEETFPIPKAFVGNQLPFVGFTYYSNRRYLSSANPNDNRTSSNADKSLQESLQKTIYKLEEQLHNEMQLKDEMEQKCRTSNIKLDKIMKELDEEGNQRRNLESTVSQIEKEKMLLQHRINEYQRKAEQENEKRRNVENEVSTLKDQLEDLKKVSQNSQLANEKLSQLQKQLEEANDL
In words: ROCK inhibition assay, standard coupled enzyme system ("Enzyme"). Particulars: enzyme-linked assay. In outline: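 ROCK I (AA 6-553) at 45 nM and 30 °C with 45 μM ATP and 200 μM peptide, in 100 mM HEPES pH 7.5, 10 mM MgCl2, 25 mM NaCl, 2 mM DTT, 1.5% DMSO. ADP output read by a PK/LDH coupled system: 2.5 mM PEP, 350 μM NADH, 30 μg/ml PK, 10 μg/ml LDH.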

Sequence of Aurora-B (Q96GD4 whole entry): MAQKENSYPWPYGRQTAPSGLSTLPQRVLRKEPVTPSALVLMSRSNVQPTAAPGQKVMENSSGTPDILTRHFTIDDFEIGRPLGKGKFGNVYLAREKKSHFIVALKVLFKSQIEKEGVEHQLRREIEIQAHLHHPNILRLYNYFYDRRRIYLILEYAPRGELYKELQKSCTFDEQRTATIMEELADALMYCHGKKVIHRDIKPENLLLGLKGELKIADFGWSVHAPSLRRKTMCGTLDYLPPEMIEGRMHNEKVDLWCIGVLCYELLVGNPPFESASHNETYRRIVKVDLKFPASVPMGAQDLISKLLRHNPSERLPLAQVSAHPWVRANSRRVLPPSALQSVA

In the case of `Clc1cnc2[nH]cc(-c3cccc(NCc4ccccc4)n3)c2c1` [Compound 20], the Ki at ROCK is 500 to 5000 nM; at JAK2, less than 500 nM; on JAK3, less than 500 nM; in assay [1], less than 500 nM.
As for `Clc1cnc2[nH]cc(-c3ccnc(N4CCCCCC4)n3)c2c1` [Compound 9], the Ki on ROCK was 500 to 5000 nM; at ROCK (Ki(app)), 500 to 5000 nM; on JAK2 (Ki(app)), 500 to 5000 nM; at JAK2 it was less than 500 nM; on JAK3 (Ki(app)), 500 to 5000 nM; at JAK3, less than 500 nM. In addition, the Ki in assay [1] is 500 to 5000 nM.
On to `COc1cnc2[nH]cc(-c3cc(N[C@@H](C)c4ccccc4)ncn3)c2c1` [Compound 14], for which the Ki on ROCK was less than 500 nM; on JAK2 it was less than 500 nM; on JAK3, less than 500 nM; in assay [1], 500 to 5000 nM.
On to `Clc1cnc2[nH]cc(-c3ccnc(NCc4ccccc4)n3)c2c1` [Compound 4], for which the Ki (on ROCK; at JAK2; on JAK3; in assay [1]) was less than 500 nM throughout.
For `COc1cnc2[nH]cc(-c3ccnc(N4CCCN(S(C)(=O)=O)CC4)n3)c2c1` [Compound 30], the Ki (on ROCK; on JAK2; at JAK3; in assay [1]) was less than 500 nM throughout.
`Nc1ccc(-c2c(-c3ccccc3)[nH]c3ncc(Br)cc23)cc1` [Compound 212]: the Ki is 500 to 5000 nM on ROCK, 500 to 5000 nM at Aurora-B and less than 500 nM in assay [1].
Consider `CC(=O)N1[C@H](C)CN(c2cccc(-c3c[nH]c4ncc(NC(=O)OC(C)(C)C)cc34)n2)C[C@@H]1C` [Compound 37], for which the Ki is less than 500 nM on ROCK, less than 500 nM at JAK2, less than 500 nM on JAK3 and 500 to 5000 nM at ROCK I (AA 6-553).
With `CC(C)C[C@@H](CO)Nc1nccc(-c2c[nH]c3ncc(Cl)cc23)n1` [Compound 10], the Ki (at ROCK; at JAK2; at JAK3; in assay [1]) was less than 500 nM throughout.
Take `COc1cnc2[nH]cc(-c3ccnc(N4C[C@@H](C)N(C(C)=O)[C@@H](C)C4)n3)c2c1` [Compound 25]: the Ki (at ROCK; at JAK2; at JAK3; in assay [1]) was less than 500 nM in each case.
As to `CC(=O)N1[C@H](C)CN(c2nc(-c3c[nH]c4ncc(Cl)cc34)ccc2C(N)=O)C[C@@H]1C` [Compound 32], the Ki on ROCK was 500 to 5000 nM; on JAK2, less than 500 nM; on JAK3, less than 500 nM; in assay [1], less than 500 nM.
For the molecule `CCCOC(=O)N1CCCN(c2nccc(-c3c[nH]c4ncc(OC)cc34)n2)CC1` [Compound 34], the Ki on ROCK was 500 to 5000 nM; at JAK2, less than 500 nM; at JAK3, less than 500 nM; on ROCK I (AA 6-553) it was less than 500 nM.
As to `COc1cnc2[nH]cc(-c3ccnc(N4CCCN(C(C)=O)CC4)n3)c2c1` [Compound 24], the Ki on ROCK was less than 500 nM; on JAK2, less than 500 nM; at JAK3, less than 500 nM; in assay [1] it was 500 to 5000 nM.
